Data on 20 compounds can be found in US8063071B2 (GlaxoSmithKline, LLC, priority 2007, dated 2011).

The target in experiment [1] is T1, Recombinant human IKKβ (residues 1-737) (Homo sapiens, UniProt O14920).
T1 construct: Recombinant human IKKβ (residues 1-737); GST (C); made in house
T1 sequence (O14920 1-737): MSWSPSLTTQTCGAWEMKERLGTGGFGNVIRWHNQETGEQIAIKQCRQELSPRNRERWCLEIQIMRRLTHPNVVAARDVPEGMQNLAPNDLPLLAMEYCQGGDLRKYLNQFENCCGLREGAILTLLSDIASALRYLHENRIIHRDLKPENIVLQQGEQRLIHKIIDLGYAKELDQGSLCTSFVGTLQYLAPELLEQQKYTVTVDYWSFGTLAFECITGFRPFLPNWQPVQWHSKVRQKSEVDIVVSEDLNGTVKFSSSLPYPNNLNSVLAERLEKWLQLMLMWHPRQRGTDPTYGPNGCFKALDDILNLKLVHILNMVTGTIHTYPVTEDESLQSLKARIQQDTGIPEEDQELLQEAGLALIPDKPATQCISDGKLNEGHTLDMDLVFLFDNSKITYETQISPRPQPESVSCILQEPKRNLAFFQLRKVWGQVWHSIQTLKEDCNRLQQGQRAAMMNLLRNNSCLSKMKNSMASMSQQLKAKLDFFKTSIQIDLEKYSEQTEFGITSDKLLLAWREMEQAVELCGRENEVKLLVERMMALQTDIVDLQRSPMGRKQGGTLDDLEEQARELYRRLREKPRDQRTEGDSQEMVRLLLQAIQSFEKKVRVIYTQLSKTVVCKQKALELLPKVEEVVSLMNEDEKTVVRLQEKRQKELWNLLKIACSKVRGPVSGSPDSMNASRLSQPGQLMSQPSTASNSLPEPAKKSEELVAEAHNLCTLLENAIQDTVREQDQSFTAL
The experiment can be described thus: IKK2 assay (TR-FRET). In kind it is biochemical. As to conditions: ATP 1 μM final, read-out: pIC50 against IKK2 (converted). The essentials: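 TR-FRET readout (665 nm over 620 nm Eu reference) of GST-IB Ser32/36 phosphorylation after 60 min detection. Reaction: 1 μM ATP, 25 nM substrate, 0.5-5 nM GST-fused IKKβ 1-737 from baculovirus, pH 7.4 HEPES buffer, 1.7% DMSO, 15 min room temperature, EDTA-terminated.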
(In general: In TR-FRET formats the signal depends on donor and acceptor labels being close together.)

Experiment [2] concerns human monocyte stimulated cytokine production (TNF-α). The experiment can be described thus: Monocyte assay (LPS-stimulated TNF-α production). In kind it is cell-based. The note with it: for IC50: 24 h, 200 ng/mL LPS, TNF-α by ELISA; for inhibition at 0.3 µM: read-out: inhibition at 300 nM in the monocyte assay. The essentials: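 TNF-α release was measured by ELISA after 24 hrs at 37 C. Cells were stimulated with 200 ng/mL E. coli LPS, with compound added 30 minutes beforehand (0.1% DMSO vehicle). Cells were Ficoll/MACS-isolated CD14+ human monocytes adhered at 1×10^6 cells/mL, and viability was checked by trypan blue.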
In general terms: ELISA stands for enzyme-linked immunosorbent assay.

In general, inhibition refers to the change of the read-out against control, counted positive when it falls.

Structures can show the parent of a compound that is named as a salt. A value given as a limit tells only on which side of the number the result lay.

For the compound `C=CCN(C)Cc1cc(-c2cc(C(N)=O)c3[nH]cc(C4CCN(S(=O)(=O)CC)CC4)c3c2)cs1` [Example 399, 3-[1-(ethylsulfonyl)-4-piperidinyl]-5-(5-{[methyl(2-propen-1-yl)amino]methyl}-3-thienyl)-1H-indole-7-carboxamide], the IC50 in experiment [1] was no more than 10 µM; in experiment [2], no more than 1.5 µM.
Regarding `CCS(=O)(=O)N1CCC(c2c[nH]c3c(C(N)=O)cc(-c4csc(CN(C)Cc5c(C)n[nH]c5C)c4)cc23)CC1` [Example 400, 5-(5-{[[(3,5-dimethyl-1H-pyrazol-4-yl)methyl](methyl)amino]methyl}-3-thienyl)-3-[1-(ethylsulfonyl)-4-piperidinyl]-1H-indole-7-carboxamide], the IC50 is no more than 10 µM in experiment [1] and no more than 1.5 µM in experiment [2].
On to `CCS(=O)(=O)N1CCC(c2c[nH]c3c(C(N)=O)cc(-c4csc(CN(C)CC#N)c4)cc23)CC1` [Example 401, 5-(5-{[(cyanomethyl)(methyl)amino]methyl}-3-thienyl)-3-[1-(ethylsulfonyl)-4-piperidinyl]-1H-indole-7-carboxamide], for which the IC50 in experiment [1] was no more than 10 µM; in experiment [2], no more than 1.5 µM.
As for `CCC(C)N(C)Cc1cc(-c2cc(C(N)=O)c3[nH]cc(C4CCN(S(=O)(=O)CC)CC4)c3c2)cs1` (stereo not shown) [Example 402, 3-[1-(ethylsulfonyl)-4-piperidinyl]-5-(5-{[methyl(1-methylpropyl)amino]methyl}-3-thienyl)-1H-indole-7-carboxamide], the IC50 in experiment [1] was no more than 10 µM; in experiment [2] it was no more than 1.5 µM.
As for `CCS(=O)(=O)N1CCC(c2c[nH]c3c(C(N)=O)cc(-c4csc(CN(C)C5CCC5)c4)cc23)CC1` [Example 404, 5-(5-{[cyclobutyl(methyl)amino]methyl}-3-thienyl)-3-[1-(ethylsulfonyl)-4-piperidinyl]-1H-indole-7-carboxamide trifluoroacetate], the IC50 in experiment [1] is no more than 10 µM; in experiment [2], no more than 1.5 µM.
For `CCS(=O)(=O)N1CCC(c2c[nH]c3c(C(N)=O)cc(-c4csc(CN(C)C(C)(C)C)c4)cc23)CC1` [Example 406, 5-(5-{[(1,1-dimethylethyl)(methyl)amino]methyl}-3-thienyl)-3-[1-(ethylsulfonyl)-4-piperidinyl]-1H-indole-7-carboxamide trifluoroacetate], in that order: no more than 10 µM and no more than 1.5 µM.
For `CCS(=O)(=O)N1CCC(c2c[nH]c3c(C(N)=O)cc(-c4csc(CN(C)[C@@H](C)CO)c4)cc23)CC1` [Example 408, 3-[1-(ethylsulfonyl)-4-piperidinyl]-5-(5-{[[(1S)-2-hydroxy-1-methylethyl](methyl)amino]methyl}-3-thienyl)-1H-indole-7-carboxamide trifluoroacetate], in that order: no more than 10 µM and no more than 1.5 µM.
For `CCS(=O)(=O)N1CCC(c2c[nH]c3c(C(N)=O)cc(-c4csc(CN(C)CC5CC5)c4)cc23)CC1` [Example 409, 5-(5-{[(cyclopropylmethyl)(methyl)amino]methyl}-3-thienyl)-3-[1-(ethylsulfonyl)-4-piperidinyl]-1H-indole-7-carboxamide trifluoroacetate], in that order: no more than 10 µM and no more than 1.5 µM.
Consider `CCC(C)(C)N(C)Cc1cc(-c2cc(C(N)=O)c3[nH]cc(C4CCN(S(=O)(=O)CC)CC4)c3c2)cs1` [Example 412, 5-{5-[(1,1-dimethylpropyl)(methyl)amino]methyl}-3-thienyl)-3-[1-(ethylsulfonyl)-4-piperidinyl]-1H-indole-7-carboxamide trifluoroacetate], for which the figures for the IC50 in experiment [1] and in experiment [2] were no more than 10 µM and no more than 1.5 µM, respectively.
For `CCS(=O)(=O)N1CCC(c2c[nH]c3c(C(N)=O)cc(-c4csc(C(C)N(C)CCOC)c4)cc23)CC1` (stereo not shown) [Example 416, 3-[1-(ethylsulfonyl)-4-piperidinyl]-5-[5-(1-{methyl[2-(methyloxy)ethyl]amino}ethyl)-3-thienyl]-1H-indole-7-carboxamide trifluoroacetate], in that order: no more than 10 µM and no more than 1.5 µM.
As to `CCCN(C)C(C)c1cc(-c2cc(C(N)=O)c3[nH]cc(C4CCN(S(=O)(=O)CC)CC4)c3c2)cs1` (stereo not shown) [Example 417, 3-[1-(ethylsulfonyl)-4-piperidinyl]-5-(5-{1-[methyl(propyl)amino]ethyl}-3-thienyl)-1H-indole-7-carboxamide trifluoroacetate], the IC50 in experiment [1] is no more than 10 µM; in experiment [2], no more than 1.5 µM.
For `CCS(=O)(=O)N1CCC(c2c[nH]c3c(C(N)=O)cc(-c4ccc5c(c4)CNC5)cc23)CC1` [Example 418, 5-(2,3-dihydro-1H-isoindol-5-yl)-3-[1-(ethylsulfonyl)-4-piperidinyl]-1H-indole-7-carboxamide], in that order: no more than 10 µM and no more than 1.5 µM.
For `CCN1Cc2ccc(-c3cc(C(N)=O)c4[nH]cc(C5CCN(S(=O)(=O)CC)CC5)c4c3)cc2C1` [Example 419, 5-(2-ethyl-2,3-dihydro-1H-isoindol-5-yl)-3-[1-(ethylsulfonyl)-4-piperidinyl]-1H-indole-7-carboxamide], in that order: no more than 10 µM and no more than 1.5 µM.
Turning to `CC(C)S(=O)(=O)N1CCC(c2c[nH]c3c(C(N)=O)cc(-c4csc(CN5CCC[C@@H]5C(N)=O)c4)cc23)CC1` [Example 429, 5-(5-{[(2R)-2-(aminocarbonyl)-1-pyrrolidinyl]methyl}-3-thienyl)-3-[1-[(1-methylethyl)sulfonyl]-4-piperidinyl]-1H-indole-7-carboxamide], the IC50 in experiment [1] was no more than 10 µM. Further, the inhibition at 0.3 µM in experiment [2] was in the range of 0 to 60%.
On to `CCSCCN(C)Cc1cc(-c2cc(C(N)=O)c3[nH]cc(C4CCN(S(=O)(=O)CC)CC4)c3c2)cs1` [Example 430, 3-[1-(ethylsulfonyl)-4-piperidinyl]-5-(5-{[[2-(ethylthio)ethyl](methyl)amino]methyl}-3-thienyl)-1H-indole-7-carboxamide], for which the IC50 in experiment [1] was no more than 10 µM. Further, the inhibition at 0.3 µM in experiment [2] fell in the range of 0 to 60%.
For `CCS(=O)(=O)N1CCC(c2c[nH]c3c(C(N)=O)cc(-c4csc(CN(C)CCSCCO)c4)cc23)CC1` [Example 431, 3-[1-(ethylsulfonyl)-4-piperidinyl]-5-(5-{[{2-[(2-hydroxyethyl)thio]ethyl}(methyl)amino]methyl}-3-thienyl)-1H-indole-7-carboxamide], in that order: no more than 10 µM and 0 to 60%.
As to `CCS(=O)(=O)N1CCC(c2c[nH]c3c(C(N)=O)cc(-c4csc(CN(C)C(CO)CO)c4)cc23)CC1` [Example 432, 3-[1-(ethylsulfonyl)-4-piperidinyl]-5-(5-{[[2-hydroxy-1-(hydroxymethyl)ethyl](methyl)amino]methyl}-3-thienyl)-1H-indole-7-carboxamide], the IC50 was no more than 10 µM in experiment [1] and no more than 1.5 µM in experiment [2].
For the compound `CCOC(=O)N(C)Cc1cc(-c2cc(C(N)=O)c3[nH]cc(C4CCN(S(=O)(=O)CC)CC4)c3c2)cs1` [Example 433, ethyl[(4-{7-(aminocarbonyl)-3-[1-(ethylsulfonyl)-4-piperidinyl]-1H-indol-5-yl}-2-thienyl)methyl]methylcarbamate], in experiment [1], the IC50 is no more than 10 µM. For the same compound, in experiment [2], the inhibition at 0.3 µM was in the range of 0 to 60%.
Consider `CCOC(=O)CN(C)Cc1cc(-c2cc(C(N)=O)c3[nH]cc(C4CCN(S(=O)(=O)CC)CC4)c3c2)cs1` [Example 434, ethyl N-[(4-[7-(aminocarbonyl)-3-[1-(ethylsulfonyl)-4-piperidinyl]-1H-indol-5-yl]-2-thienyl)methyl]-N-methylglycinate], for which the IC50 is no more than 10 µM in experiment [1] and no more than 1.5 µM in experiment [2].
As to `CCS(=O)(=O)N1CCC(c2c[nH]c3c(C(N)=O)cc(-c4csc(CN(C)C5CCS(=O)(=O)C5)c4)cc23)CC1` (stereo not shown) [Example 436, 5-(5-{[(1,1-dioxidotetrahydro-3-thienyl)(methyl)amino]methyl}-3-thienyl)-3-[1-(ethylsulfonyl)-4-piperidinyl]-1H-indole-7-carboxamide trifluoroacetate], the IC50 in experiment [1] was no more than 10 µM. Besides, the inhibition at 0.3 µM in experiment [2] was 0 to 60%.
